Measurements taken from patent publication US12448369B2 (Edgewise Therapeutics, Inc., priority 2023, dated 2025).

Experiments:
[1] = test system: Rabbit Psoas myofibrils (skeletal myosin ATPase); assay: Myofibril ATPase assay, rabbit psoas (skeletal) myofibrils; assay type: biochemical; details: rabbit psoas myofibrils
Summary of the method: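 Values are concentrations giving 75% (Y75) or 125% (Y125) of vehicle ATPase activity, from 4-parameter logistic fits of normalized rates. Rates came from linear regression of A340 over 75 min, NADH oxidation coupled to ADP via PK-LDH. Enzyme source: skeletal myofibrils from rabbit psoas, pH 7.0 pCa buffer.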

[2] = test system: Porcine atria myofibrils (atrial myosin ATPase); assay: Myofibril ATPase assay, porcine atria myofibrils; assay type: biochemical; details: porcine atria myofibrils
Summary of the method: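 Y75 (25% inhibition) or Y125 (activation) values come from 4-parameter logistic fits of vehicle-normalized rates. Rates are linear-regression slopes of NADH absorbance at 340 nm, read kinetically over 75 min, with ADP coupled to NADH oxidation via pyruvate kinase/lactate dehydrogenase.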

[3] = molecular target: T1, Porcine ventricle myofibrils (ventricular myosin ATPase) (Sus scrofa, UniProt P79293); assay: Myofibril ATPase assay, porcine ventricle myofibrils; assay type: biochemical, porcine (Yucatan minipigs); details: porcine ventricle myofibrils
T1 construct: Myofibrils from porcine cardiac muscle was isolated from the left ventricle of Yucatan minipigs; tissue Exemplar Genetics; host or cells: left ventricle of Yucatan minipigs, myofibrils prepared in house
T1 sequence (P79293 whole entry): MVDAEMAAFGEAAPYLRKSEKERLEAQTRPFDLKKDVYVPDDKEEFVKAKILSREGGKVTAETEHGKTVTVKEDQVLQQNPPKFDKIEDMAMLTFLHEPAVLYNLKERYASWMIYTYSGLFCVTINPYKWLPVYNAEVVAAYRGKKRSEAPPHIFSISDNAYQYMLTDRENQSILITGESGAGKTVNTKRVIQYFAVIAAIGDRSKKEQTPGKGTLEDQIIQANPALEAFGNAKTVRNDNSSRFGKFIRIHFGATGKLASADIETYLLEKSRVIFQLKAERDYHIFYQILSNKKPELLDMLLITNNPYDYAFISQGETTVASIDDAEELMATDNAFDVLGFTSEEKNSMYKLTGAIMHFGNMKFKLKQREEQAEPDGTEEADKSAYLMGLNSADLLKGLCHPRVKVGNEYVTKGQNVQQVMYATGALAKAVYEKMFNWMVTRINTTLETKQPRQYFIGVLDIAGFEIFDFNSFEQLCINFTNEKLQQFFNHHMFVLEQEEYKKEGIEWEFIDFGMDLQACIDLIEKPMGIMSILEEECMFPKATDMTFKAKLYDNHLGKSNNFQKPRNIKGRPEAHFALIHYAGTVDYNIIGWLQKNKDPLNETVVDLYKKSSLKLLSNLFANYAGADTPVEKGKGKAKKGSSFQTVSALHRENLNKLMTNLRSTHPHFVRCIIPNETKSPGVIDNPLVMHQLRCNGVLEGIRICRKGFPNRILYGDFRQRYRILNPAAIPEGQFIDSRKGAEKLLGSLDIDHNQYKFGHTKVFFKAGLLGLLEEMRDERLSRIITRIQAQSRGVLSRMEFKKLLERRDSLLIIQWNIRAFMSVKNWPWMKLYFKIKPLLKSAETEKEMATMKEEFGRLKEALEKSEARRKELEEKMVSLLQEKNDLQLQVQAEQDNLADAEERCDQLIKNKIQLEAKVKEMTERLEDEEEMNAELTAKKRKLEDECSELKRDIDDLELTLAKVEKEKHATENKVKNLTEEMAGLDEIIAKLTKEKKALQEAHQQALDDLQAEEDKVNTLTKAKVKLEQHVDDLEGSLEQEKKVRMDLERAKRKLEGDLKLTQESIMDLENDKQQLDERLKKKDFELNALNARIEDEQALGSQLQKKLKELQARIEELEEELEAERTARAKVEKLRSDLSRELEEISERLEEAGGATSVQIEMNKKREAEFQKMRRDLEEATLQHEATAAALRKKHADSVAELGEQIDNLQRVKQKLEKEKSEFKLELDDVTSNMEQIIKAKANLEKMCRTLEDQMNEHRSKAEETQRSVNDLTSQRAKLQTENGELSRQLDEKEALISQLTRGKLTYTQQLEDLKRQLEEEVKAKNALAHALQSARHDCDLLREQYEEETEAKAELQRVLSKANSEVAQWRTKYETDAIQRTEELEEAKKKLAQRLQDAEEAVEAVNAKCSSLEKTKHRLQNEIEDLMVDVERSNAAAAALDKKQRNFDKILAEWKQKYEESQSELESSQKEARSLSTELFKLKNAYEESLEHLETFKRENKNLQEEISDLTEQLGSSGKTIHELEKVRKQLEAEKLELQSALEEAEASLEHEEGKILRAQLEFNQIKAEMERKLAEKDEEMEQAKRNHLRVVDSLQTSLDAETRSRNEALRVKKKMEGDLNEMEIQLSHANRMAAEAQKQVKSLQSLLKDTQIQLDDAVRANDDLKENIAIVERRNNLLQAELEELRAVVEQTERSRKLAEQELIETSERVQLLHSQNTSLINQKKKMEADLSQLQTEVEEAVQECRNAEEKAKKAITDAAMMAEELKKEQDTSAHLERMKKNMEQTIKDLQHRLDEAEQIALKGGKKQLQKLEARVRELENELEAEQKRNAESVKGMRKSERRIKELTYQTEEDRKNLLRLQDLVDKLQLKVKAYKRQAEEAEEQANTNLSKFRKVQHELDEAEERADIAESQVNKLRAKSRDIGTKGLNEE
Summary of the method: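 ATPase activity of porcine left-ventricular myofibrils is tracked as the slope of NADH loss at 340 nm through a PK/LDH couple. Values are the concentrations that bring activity to 75% (inhibitors) or 125% (activators) of vehicle.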

[4] = Y75 value (75% activity relative to no compound)

Compound	Skeletal EC25 ([1]; Y75 value) [µM]	Atrial EC25 [2, 4] [µM]	Ventricular EC25 ([3]; Y75 value) [µM]	Skeletal EC25 ([1]; Y75 value (no ‡ mark)) [µM]	Atrial EC25 ([2]; Y75 value (no ‡ mark)) [µM]	Ventricular EC25 ([3]; Y75 value (no ‡ mark)) [µM]
C#Cc1nccc2[nH]c(=O)c(CC(=O)N[C@@H](C)c3cnc(N=[N+]=[N-])cc3C)c(C)c12 [compound 488]	1.15	12.56	4.94			
Cc1nccc2[nH]c(=O)c(CC(=O)NC[C@H](CO)c3ccccc3)c(C)c12 [compound 493]	100.00	100.00	100.00			
Cc1nccc2[nH]c(=O)c(CC(=O)NC[C@@H](CO)c3ccccc3)c(C)c12 [compound 494]	100.00	100.00	100.00			
Cc1nccc2[nH]c(=O)c(CC(=O)N[C@H](CO)Cc3ccccc3)c(C)c12 [compound 495]	100.00	100.00	100.00			
Cc1nccc2[nH]c(=O)c(CC(=O)N[C@@H](CO)Cc3ccccc3)c(C)c12 [compound 496]	100.00	100.00	100.00			
COc1ncc2[nH]c(=O)c(CC(=O)N[C@@H](C)c3ccc(F)cc3F)cc2n1 [compound 497]	100	73.3	100			
Cc1nccc2[nH]c(=O)c(CC(=O)N[C@H](CO)c3ccc(F)cc3F)c(C)c12 [compound 498]	7.2	100	100			
Cc1nncc2[nH]c(=O)c(CC(=O)N[C@H](C)c3ccc(F)cc3F)cc12 [compound 499]	100	100	100			
Cc1nccc2[nH]c(=O)c(CC(=O)N[C@H]3CCc4cc(F)cc(F)c43)c(C)c12 [compound 501]	3.4	76	78			
Cc1c(CC(=O)N[C@H](C)c2ncc(C#N)cn2)c(=O)[nH]c2cc(F)ccc12 [compound 1040]				52	6.01	12
Cc1c(CC(=O)N[C@@H](C)c2ncc(C#N)cn2)c(=O)[nH]c2cc(F)ccc12 [compound 1041]				7.39	18.0	76
Cc1ccncc1[C@@H](C)NC(=O)Cc1c(C)c2c(C)c(F)ccc2[nH]c1=O [compound 1046]				0.04	0.06	0.14
Cc1ccncc1[C@H](C)NC(=O)Cc1c(C)c2c(C)c(F)ccc2[nH]c1=O [compound 1047]				100	100.00	1.13
Cc1ccncc1[C@@H](C)NC(=O)Cc1c(C)c2cc(F)ccc2[nH]c1=O [compound 1048]				2.2	0.29	1.73
Cc1ccncc1[C@H](C)NC(=O)Cc1c(C)c2cc(F)ccc2[nH]c1=O [compound 1049]				29	100.00	100.00
Cc1nc(C#N)ccc1[C@@H](C)NC(=O)Cc1c(C)c2cc(F)ccc2[nH]c1=O [compound 1050]				3.4	0.22	2.36
Cc1nc(C#N)ccc1[C@H](C)NC(=O)Cc1c(C)c2cc(F)ccc2[nH]c1=O [compound 1051]				0.03	0.14	0.26
Cc1nc(C#N)ncc1[C@@H](C)NC(=O)Cc1c(C)c2cc(F)ccc2[nH]c1=O [compound 1052]				0.78	0.65	7.05
Cc1nc(C#N)ncc1[C@H](C)NC(=O)Cc1c(C)c2cc(F)ccc2[nH]c1=O [compound 1053]				0.04	0.12	0.22
N#Cc1cnc2c(c1)COC[C@@H]2NC(=O)Cc1cc2cc(F)c(F)cc2[nH]c1=O [compound 1055]				18	100.00	100.00
Cc1c(CC(=O)N[C@@H]2COCc3cc(C#N)cnc32)c(=O)[nH]c2ccc(F)cc12 [compound 1056]				100	100.00	100.00
Cc1c(CC(=O)N[C@H]2COCc3cc(C#N)cnc32)c(=O)[nH]c2ccc(F)cc12 [compound 1057]				21	100.00	100.00
Cc1cc([C@@H](C)NC(=O)Cc2c(C)c3cc(F)ccc3[nH]c2=O)ncc1F [compound 1060]				100.00	13.11	100.00
Cc1cc([C@H](C)NC(=O)Cc2c(C)c3cc(F)ccc3[nH]c2=O)ncc1F [compound 1061]				100.00	2.49	100.00
Cc1c(CC(=O)N[C@@H]2COc3cc(C#N)cnc32)c(=O)[nH]c2ccc(F)cc12 [compound 1062]				9.26	3.49	6.56
Cc1c(CC(=O)N[C@H]2COc3cc(C#N)cnc32)c(=O)[nH]c2ccc(F)cc12 [compound 1063]				0.22	0.16	0.76
Cc1c(CC(=O)N[C@H](C)c2ncc(C#N)cn2)c(=O)[nH]c2ccc(F)cc12 [compound 1070]				2.50	0.22	1.72
Cc1c(CC(=O)N[C@@H](C)c2ncc(C#N)cn2)c(=O)[nH]c2ccc(F)cc12 [compound 1071]				100.00	5.29	11.94
Cc1c(CC(=O)N[C@H](C)c2ccc(C#N)cn2)c(=O)[nH]c2cc(F)ccc12 [compound 1072]				100.00	17.57	36.86

More lines, now with the values ahead:

Skeletal EC25 ([1]; Y75 value) [µM]	Atrial EC25 [2, 4] [µM]	Ventricular EC25 ([3]; Y75 value) [µM]	Skeletal EC25 ([1]; Y75 value (no ‡ mark)) [µM]	Atrial EC25 ([2]; Y75 value (no ‡ mark)) [µM]	Ventricular EC25 ([3]; Y75 value (no ‡ mark)) [µM]	Compound
0.26	1.00	0.57				Cc1cc(C#N)nnc1[C@@H](C)NC(=O)Cc1c(C)c2c(C)nccc2[nH]c1=O [compound 489]
45.80	100.00	100.00				Cc1cc(C#N)nnc1[C@H](C)NC(=O)Cc1c(C)c2c(C)nccc2[nH]c1=O [compound 490]
7.59	1.57	11.59				Cc1nc(C#N)cnc1[C@@H](C)NC(=O)Cc1c(C)c2c(C)nccc2[nH]c1=O [compound 491]
0.28	0.08	0.32				Cc1nc(C#N)cnc1[C@H](C)NC(=O)Cc1c(C)c2c(C)nccc2[nH]c1=O [compound 492]
2.3	43	70				Cc1nccc2[nH]c(=O)c(CC(=O)N[C@@H](C)c3c(F)cc(F)cc3F)c(C)c12 [compound 500]
			0.34	0.42	2.7	Cc1c(CC(=O)N[C@H](C)c2ccc(C#N)nn2)c(=O)[nH]c2cccc(C#N)c12 [compound 1038]
			0.08	0.22	0.67	Cc1c(CC(=O)N[C@@H](C)c2ccc(C#N)nn2)c(=O)[nH]c2cccc(C#N)c12 [compound 1039]
			1.88	0.89	24	Cc1c(CC(=O)N[C@H](C)c2ccc(C#N)nn2)c(=O)[nH]c2cc(F)c(F)cc12 [compound 1042]
			0.41	1.28	3.5	Cc1c(CC(=O)N[C@@H](C)c2ccc(C#N)nn2)c(=O)[nH]c2cc(F)c(F)cc12 [compound 1043]
			0.02	0.06	0.10	Cc1cc(C#N)ncc1[C@@H](C)NC(=O)Cc1c(C)c2c(C)c(F)ccc2[nH]c1=O [compound 1044]
			0.44	1.5	1.7	Cc1cc(C#N)ncc1[C@H](C)NC(=O)Cc1c(C)c2c(C)c(F)ccc2[nH]c1=O [compound 1045]
			29.21	1.92	6.86	Cc1cc(C#N)nnc1[C@@H](C)NC(=O)Cc1c(C)c2cc(F)ccc2[nH]c1=O [compound 1058]
			0.39	0.13	0.16	Cc1cc(C#N)nnc1[C@H](C)NC(=O)Cc1c(C)c2cc(F)ccc2[nH]c1=O [compound 1059]
			0.12	0.07	0.06	Cc1nc(C#N)cnc1[C@@H](C)NC(=O)Cc1c(C)c2cc(F)ccc2[nH]c1=O [compound 1068]
